Columns and labels:
B-RAF = target: T1, B-RAF (Homo sapiens, UniProt P15056); assay: Kinase profiling at 10 μM (Eurofins); type: biochemical; settings: read-out: Inhibitory activity
T1 construct: purchased Eurofins Pharma Discovery (KinaseProfiler); IC50 values by Reaction Biology Corp

CDK1/cyclinB = target: T2, CDK1/cyclinB (Homo sapiens, UniProt P06493); assay: Kinase profiling at 10 μM (Eurofins); type: biochemical; settings: read-out: Inhibitory activity
T2 construct: purchased Eurofins Pharma Discovery (KinaseProfiler); IC50 values by Reaction Biology Corp

CHK1 = target: T3, CHK1 (Homo sapiens, UniProt O14757); assay: Kinase profiling at 10 μM (Eurofins); type: biochemical; settings: read-out: Inhibitory activity
T3 construct: purchased Eurofins Pharma Discovery (KinaseProfiler); IC50 values by Reaction Biology Corp

CK1γ1 = target: T4, CK1γ1 (Homo sapiens, UniProt Q9HCP0); assay: Kinase profiling at 10 μM (Eurofins); type: biochemical; settings: read-out: Inhibitory activity
T4 construct: purchased Eurofins Pharma Discovery (KinaseProfiler); IC50 values by Reaction Biology Corp

CK2 = target: T5, CK2 (Homo sapiens, UniProt P68400); assay: Kinase profiling at 10 μM (Eurofins); type: biochemical; settings: read-out: Inhibitory activity
T5 construct: purchased Eurofins Pharma Discovery (KinaseProfiler); IC50 values by Reaction Biology Corp

c-KIT = target: T6, c-KIT (Homo sapiens, UniProt P10721); assay: Kinase profiling at 10 μM (Eurofins); type: biochemical; settings: read-out: Inhibitory activity
T6 construct: purchased Eurofins Pharma Discovery (KinaseProfiler); IC50 values by Reaction Biology Corp

DAPK1 = target: T7, DAPK1 (Homo sapiens, UniProt P53355); assay: Kinase profiling at 10 μM (Eurofins); type: biochemical; settings: read-out: Inhibitory activity
T7 construct: purchased Eurofins Pharma Discovery (KinaseProfiler); IC50 values by Reaction Biology Corp
T7 sequence (P53355 whole entry): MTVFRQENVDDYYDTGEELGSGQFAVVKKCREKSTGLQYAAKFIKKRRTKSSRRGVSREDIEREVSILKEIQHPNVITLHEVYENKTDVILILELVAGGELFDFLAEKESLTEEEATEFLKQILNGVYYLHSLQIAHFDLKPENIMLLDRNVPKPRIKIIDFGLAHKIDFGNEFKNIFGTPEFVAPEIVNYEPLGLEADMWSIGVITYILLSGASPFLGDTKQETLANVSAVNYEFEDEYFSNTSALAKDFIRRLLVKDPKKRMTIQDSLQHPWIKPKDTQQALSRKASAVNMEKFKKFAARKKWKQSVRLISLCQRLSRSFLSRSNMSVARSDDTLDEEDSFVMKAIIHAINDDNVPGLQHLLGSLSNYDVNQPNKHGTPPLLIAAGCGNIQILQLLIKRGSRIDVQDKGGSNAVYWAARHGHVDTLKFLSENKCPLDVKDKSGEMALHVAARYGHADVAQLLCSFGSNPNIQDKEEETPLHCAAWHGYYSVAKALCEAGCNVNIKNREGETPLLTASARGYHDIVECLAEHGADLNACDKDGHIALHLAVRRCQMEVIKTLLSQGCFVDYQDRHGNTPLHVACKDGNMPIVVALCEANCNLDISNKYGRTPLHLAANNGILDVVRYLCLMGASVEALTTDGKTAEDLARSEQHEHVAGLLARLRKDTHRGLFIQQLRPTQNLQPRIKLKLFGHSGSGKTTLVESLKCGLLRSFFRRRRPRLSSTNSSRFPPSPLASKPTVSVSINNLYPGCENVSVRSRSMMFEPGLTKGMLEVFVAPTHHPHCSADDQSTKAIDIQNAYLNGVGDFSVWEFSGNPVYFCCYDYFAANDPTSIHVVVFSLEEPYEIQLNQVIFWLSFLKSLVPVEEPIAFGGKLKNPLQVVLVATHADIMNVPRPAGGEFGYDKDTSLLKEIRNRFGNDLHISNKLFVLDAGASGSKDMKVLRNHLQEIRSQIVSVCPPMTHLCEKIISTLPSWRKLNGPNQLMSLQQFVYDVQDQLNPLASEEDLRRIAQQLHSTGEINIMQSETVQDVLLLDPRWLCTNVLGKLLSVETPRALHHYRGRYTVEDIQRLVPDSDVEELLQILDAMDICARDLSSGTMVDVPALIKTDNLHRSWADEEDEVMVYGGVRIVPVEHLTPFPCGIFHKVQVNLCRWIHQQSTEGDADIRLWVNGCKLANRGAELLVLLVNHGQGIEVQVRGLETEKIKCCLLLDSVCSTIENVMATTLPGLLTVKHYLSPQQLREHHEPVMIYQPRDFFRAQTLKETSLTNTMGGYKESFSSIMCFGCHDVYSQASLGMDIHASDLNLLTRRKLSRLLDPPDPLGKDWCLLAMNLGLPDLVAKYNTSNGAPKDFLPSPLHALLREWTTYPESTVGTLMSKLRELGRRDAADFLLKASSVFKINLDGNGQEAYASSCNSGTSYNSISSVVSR

EGFR = target: T8, EGFR (Homo sapiens, UniProt P00533); assay: Kinase profiling at 10 μM (Eurofins); type: biochemical; settings: read-out: Inhibitory activity
T8 construct: purchased Eurofins Pharma Discovery (KinaseProfiler); IC50 values by Reaction Biology Corp
T8 sequence (P00533 25-1210): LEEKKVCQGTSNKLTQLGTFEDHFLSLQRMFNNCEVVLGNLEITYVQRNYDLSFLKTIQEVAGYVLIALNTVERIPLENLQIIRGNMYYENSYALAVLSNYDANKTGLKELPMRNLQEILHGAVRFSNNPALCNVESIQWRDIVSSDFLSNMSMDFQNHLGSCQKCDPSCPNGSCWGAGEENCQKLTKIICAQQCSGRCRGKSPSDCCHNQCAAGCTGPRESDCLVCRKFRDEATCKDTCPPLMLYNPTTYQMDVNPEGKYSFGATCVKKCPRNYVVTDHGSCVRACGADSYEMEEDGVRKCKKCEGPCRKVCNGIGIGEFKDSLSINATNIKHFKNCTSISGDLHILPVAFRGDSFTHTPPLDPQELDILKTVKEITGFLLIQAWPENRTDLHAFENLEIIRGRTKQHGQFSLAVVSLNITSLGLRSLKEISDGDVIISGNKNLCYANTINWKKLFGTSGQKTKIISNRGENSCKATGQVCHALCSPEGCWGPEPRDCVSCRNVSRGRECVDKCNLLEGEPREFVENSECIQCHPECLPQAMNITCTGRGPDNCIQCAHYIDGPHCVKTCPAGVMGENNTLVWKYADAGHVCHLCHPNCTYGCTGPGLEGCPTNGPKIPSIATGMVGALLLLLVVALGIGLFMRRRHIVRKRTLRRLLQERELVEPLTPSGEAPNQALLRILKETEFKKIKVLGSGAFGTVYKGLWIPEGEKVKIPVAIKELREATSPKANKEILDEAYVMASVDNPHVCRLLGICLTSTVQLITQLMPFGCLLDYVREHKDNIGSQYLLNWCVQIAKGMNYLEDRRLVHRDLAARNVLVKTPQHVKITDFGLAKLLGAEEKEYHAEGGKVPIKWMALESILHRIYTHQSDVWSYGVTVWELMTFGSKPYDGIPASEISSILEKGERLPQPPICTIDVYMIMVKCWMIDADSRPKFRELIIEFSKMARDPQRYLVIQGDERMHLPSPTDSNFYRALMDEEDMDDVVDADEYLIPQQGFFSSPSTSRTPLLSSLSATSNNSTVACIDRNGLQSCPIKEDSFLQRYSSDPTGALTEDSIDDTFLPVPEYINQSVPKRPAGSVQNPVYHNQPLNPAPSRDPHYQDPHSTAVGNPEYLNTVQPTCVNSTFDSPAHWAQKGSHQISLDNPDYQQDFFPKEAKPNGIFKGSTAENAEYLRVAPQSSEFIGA

EPHB4 = target: T9, EPHB4 (Homo sapiens, UniProt P54760); assay: Kinase profiling at 10 μM (Eurofins); type: biochemical; settings: read-out: Inhibitory activity
T9 construct: purchased Eurofins Pharma Discovery (KinaseProfiler); IC50 values by Reaction Biology Corp

ERBB2 = target: T10, ERBB2 (Homo sapiens, UniProt P04626); assay: Kinase profiling at 10 μM (Eurofins); type: biochemical; settings: read-out: Inhibitory activity
T10 construct: purchased Eurofins Pharma Discovery (KinaseProfiler); IC50 values by Reaction Biology Corp
T10 sequence (P04626 23-1255): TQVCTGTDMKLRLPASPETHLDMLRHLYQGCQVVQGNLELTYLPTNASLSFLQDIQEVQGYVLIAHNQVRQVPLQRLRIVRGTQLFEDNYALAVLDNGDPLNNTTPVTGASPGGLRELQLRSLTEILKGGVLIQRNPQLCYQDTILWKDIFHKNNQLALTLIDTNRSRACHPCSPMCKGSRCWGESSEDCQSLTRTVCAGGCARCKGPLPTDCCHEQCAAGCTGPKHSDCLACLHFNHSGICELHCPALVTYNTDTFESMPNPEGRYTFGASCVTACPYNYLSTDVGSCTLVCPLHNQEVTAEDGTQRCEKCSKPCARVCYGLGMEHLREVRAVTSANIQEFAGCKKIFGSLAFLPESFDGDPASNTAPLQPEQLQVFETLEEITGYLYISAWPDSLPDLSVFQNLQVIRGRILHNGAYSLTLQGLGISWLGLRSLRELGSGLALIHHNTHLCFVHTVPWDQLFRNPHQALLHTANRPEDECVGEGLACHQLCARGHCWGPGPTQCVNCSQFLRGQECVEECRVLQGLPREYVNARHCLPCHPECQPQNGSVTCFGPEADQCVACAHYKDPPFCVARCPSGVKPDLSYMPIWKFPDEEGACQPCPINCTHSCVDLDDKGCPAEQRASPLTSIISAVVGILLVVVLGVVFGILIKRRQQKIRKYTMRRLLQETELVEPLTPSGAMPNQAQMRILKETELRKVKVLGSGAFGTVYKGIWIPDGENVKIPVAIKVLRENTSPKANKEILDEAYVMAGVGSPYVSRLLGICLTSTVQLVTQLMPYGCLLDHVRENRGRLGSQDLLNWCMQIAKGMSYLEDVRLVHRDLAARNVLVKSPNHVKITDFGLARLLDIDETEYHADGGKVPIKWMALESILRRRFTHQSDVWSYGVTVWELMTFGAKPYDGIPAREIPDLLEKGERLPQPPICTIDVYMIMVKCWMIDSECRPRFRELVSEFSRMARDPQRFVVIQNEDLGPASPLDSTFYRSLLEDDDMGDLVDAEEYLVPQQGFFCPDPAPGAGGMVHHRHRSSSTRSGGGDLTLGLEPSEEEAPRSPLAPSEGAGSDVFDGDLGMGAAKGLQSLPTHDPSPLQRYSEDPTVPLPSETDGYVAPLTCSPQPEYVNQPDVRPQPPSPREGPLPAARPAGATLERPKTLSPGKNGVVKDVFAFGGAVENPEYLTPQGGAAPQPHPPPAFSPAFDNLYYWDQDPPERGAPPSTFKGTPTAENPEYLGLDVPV

IKKα = target: T11, IKKα (Homo sapiens, UniProt O15111); assay: Kinase profiling at 10 μM (Eurofins); type: biochemical; settings: read-out: Inhibitory activity
T11 construct: purchased Eurofins Pharma Discovery (KinaseProfiler); IC50 values by Reaction Biology Corp
T11 sequence (O15111 whole entry): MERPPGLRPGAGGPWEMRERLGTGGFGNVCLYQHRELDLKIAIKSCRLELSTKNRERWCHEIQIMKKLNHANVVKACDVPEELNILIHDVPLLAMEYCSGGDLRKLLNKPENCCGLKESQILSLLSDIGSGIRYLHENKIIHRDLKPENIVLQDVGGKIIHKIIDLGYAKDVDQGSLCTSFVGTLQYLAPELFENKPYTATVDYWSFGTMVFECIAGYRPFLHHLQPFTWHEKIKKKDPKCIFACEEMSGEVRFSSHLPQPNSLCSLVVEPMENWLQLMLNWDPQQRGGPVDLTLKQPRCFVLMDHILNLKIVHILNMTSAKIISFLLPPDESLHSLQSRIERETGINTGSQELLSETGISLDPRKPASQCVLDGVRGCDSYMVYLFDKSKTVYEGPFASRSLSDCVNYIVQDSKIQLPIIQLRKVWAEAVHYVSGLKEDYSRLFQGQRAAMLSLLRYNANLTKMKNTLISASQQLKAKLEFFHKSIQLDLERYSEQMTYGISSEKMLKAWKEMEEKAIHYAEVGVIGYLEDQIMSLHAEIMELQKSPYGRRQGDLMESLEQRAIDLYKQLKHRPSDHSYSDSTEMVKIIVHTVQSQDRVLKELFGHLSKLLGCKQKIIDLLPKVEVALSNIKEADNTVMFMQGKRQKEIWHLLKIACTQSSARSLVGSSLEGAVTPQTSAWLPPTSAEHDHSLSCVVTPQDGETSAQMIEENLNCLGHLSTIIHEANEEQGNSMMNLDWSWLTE

PIM-1 = target: T12, PIM-1 (Homo sapiens, UniProt P11309); assay: Kinase profiling at 10 μM (Eurofins); type: biochemical; settings: read-out: Inhibitory activity
T12 construct: purchased Eurofins Pharma Discovery (KinaseProfiler); IC50 values by Reaction Biology Corp

PKBα = target: T13, PKBα (Homo sapiens, UniProt P31749); assay: Kinase profiling at 10 μM (Eurofins); type: biochemical; settings: read-out: Inhibitory activity
T13 construct: purchased Eurofins Pharma Discovery (KinaseProfiler); IC50 values by Reaction Biology Corp
T13 sequence (P31749 whole entry): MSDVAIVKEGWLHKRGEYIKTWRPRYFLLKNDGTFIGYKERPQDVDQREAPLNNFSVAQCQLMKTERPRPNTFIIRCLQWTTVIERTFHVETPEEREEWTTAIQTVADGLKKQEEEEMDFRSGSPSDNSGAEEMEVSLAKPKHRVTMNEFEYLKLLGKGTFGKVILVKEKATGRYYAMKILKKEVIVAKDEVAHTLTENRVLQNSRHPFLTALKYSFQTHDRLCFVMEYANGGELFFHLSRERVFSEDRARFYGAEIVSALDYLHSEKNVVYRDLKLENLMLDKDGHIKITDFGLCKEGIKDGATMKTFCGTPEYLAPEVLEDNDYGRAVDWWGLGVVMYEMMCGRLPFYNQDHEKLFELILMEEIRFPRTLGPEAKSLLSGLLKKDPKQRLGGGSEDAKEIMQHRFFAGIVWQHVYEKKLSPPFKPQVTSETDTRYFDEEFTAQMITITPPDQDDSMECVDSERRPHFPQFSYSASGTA

A549 cells [1] = assay: MTT cell viability assay, single drugs and combinations, CI scores; type: cell-based, human
Experimental: (§1) Cell viability was assessed using the MTT colorimetric assay. Cells (1 × 10^3 cells/well) were seeded into 96-well plates and treated with the various concentrations of each compound or combination of two compounds. After five days of treatment, 10 μL MTT (0.5 mg/mL) was added, and further incubated for 3 h. After removal of the supernatant, the resultant pellet was dissolved in DMSO. The absorbance of the resultant formazan was measured at 540 nm using a plate reader (Multiskan EX; ThermoLabsystems, Waltham, MA, USA).
(§2) CI scores were calculated using the CompuSyn software by Chou (CompuSyn Inc., Paramus, NJ) based on cell viability after treatment with single- and paired-drug concentrations. The CI equation for two drugs was used: CI=(D)A/(Dx)A+(D)B/(Dx)B where (Dx)A is the concentration of drug A alone that inhibits x%, (Dx)B is the concentration of drug B alone that inhibits x%, (D)A or (D)B is the portion of drug A or drug B in the combination (D)A + (D)B that inhibits x%.

H1299 cells [2] = assay: as above; type: cell-based, human
Experimental: as §1, §2

A549 cells [3] = assay: Immunoblot of cleaved caspase-3 and PARP-1; type: cell-based, human; settings: 48 h
Experimental: (§3) Cell lysates were prepared by extracting proteins with TNN buffer (40 mM Tris-Cl pH 8.0, 0.2% NP-40, 120 mM NaCl) or radioimmunoprecipitation assay (RIPA) lysis buffer (Millipore, Billerica MA, USA) supplemented with a protease inhibitor cocktail (Thermo Fisher Scientific, Rockford, IL, USA). Equal amounts of proteins were separated using SDS-PAGE on 8–13% gels, and transferred to nitrocellulose membranes (Bio-Rad, Hercules, CA, USA). The membranes were blocked with 5% skim milk in Tris-buffered saline-Tween 20 (TBST) (150 mM NaCl, 10 mM Tris, 0.2% Tween20), followed by overnight incubation with primary antibodies at 4 °C. The blots were developed using peroxidase-conjugated secondary antibody and the immunoreactive proteins were visualized using enhanced chemiluminescence (ECL) reagents, according to the manufacturer’s recommendations (Amersham, GE Healthcare, Buckingamshire, UK). The protein bands were visualized using a digital imaging system (ImageQuant LAS 4000 mini; GE Healthcare, UK). The protein levels were analyzed using Image J software (National Institutes of Health, Bethesda, MD, USA). Experiments were repeated at least thrice.

H1299 cells [4] = assay: Immunoblot of cleaved caspase-3 and PARP-1; type: cell-based, human; settings: 48 h
Experimental: as §3

A549 cells [5] = assay: Detection of intracellular ROS (CM-H2DCFDA, flow cytometry); type: cell-based, human; settings: 5 μM, 24 h
Experimental: (§4) DMSO- or AIU2001-treated cells (5 × 10^5) were further treated with 10 μM CM-H2DCFH-DA for 30min and then washed with PBS before trypsinization. After detaching with trypsin, the cells were collected, washed, and resuspended in PBS. ROS inhibition was evaluated by treating cells with 5 mM NAC 2 h prior to AIU2001 treatment. Intracellular ROS levels were detected using a flow cytometer (CyFlow cube 6) at excitation/emission wavelengths of 488/525 nm.

H1299 cells [6] = assay: as above; type: cell-based, human; settings: 5 μM, 24 h
Experimental: as §4

FLT3(D835Y) = FLT3(D835Y) (Homo sapiens, UniProt P36888, D835Y); assay: Kinase profiling at 10 μM (Eurofins); type: biochemical; set-up: purchased Eurofins Pharma Discovery (KinaseProfiler); IC50 values by Reaction Biology Corp; settings: read-out: Inhibitory activity

Brc1ccc(-c2cnc(Nc3cccc4ccccc34)o2)cc1 [AIU2001, 5-(4-bromophenyl)-N-(naphthalen-1-yl) oxazol-2-amine]
inhibition at 10 µM (B-RAF): 0% | inhibition at 10 µM (CDK1/cyclinB): 38% | inhibition at 10 µM (CHK1): 0% | inhibition at 10 µM (CK1γ1): 37% | inhibition at 10 µM (CK2): 10% | inhibition at 10 µM (c-KIT): ≥ 75% | inhibition at 10 µM (DAPK1): 12% | inhibition at 10 µM (EGFR): 10% | inhibition at 10 µM (EPHB4): 10% | inhibition at 10 µM (ERBB2): 0% | inhibition at 10 µM (IKKα): 7% | inhibition at 10 µM (PIM-1): 37% | inhibition at 10 µM (PKBα): 24% | viability at 0.16 µM (A549 cells [1]; Homo sapiens, 120 h, Olaparib 0, AIU2001 0.16 μM, 5 days, panel A, read-out: Relative viability): 95.1% | viability at 0.32 µM (A549 cells [1]; Homo sapiens, 120 h, Olaparib 0, AIU2001 0.32 μM, 5 days, panel A, read-out: Relative viability): 95% | viability at 0.63 µM (A549 cells [1]; Homo sapiens, 120 h, Olaparib 0, AIU2001 0.63 μM, 5 days, panel A, read-out: Relative viability): 89% | viability at 1.25 µM (A549 cells [1]; Homo sapiens, 120 h, Olaparib 0, AIU2001 1.25 μM, 5 days, panel A, read-out: Relative viability): 86.5% | viability at 2.5 µM (A549 cells [1]; Homo sapiens, 120 h, Olaparib 0, AIU2001 2.50 μM, 5 days, panel A, read-out: Relative viability): 53.6% | viability at 5 µM (A549 cells [1]; Homo sapiens, 120 h, Olaparib 0, AIU2001 5.00 μM, 5 days, panel A, read-out: Relative viability): 31.6% | viability at 10 µM (A549 cells [1]; Homo sapiens, 120 h, Olaparib 0, AIU2001 10.00 μM, 5 days, panel A, read-out: Relative viability): 21.1% | Growth inhibition (A549 cells [1]; MTT, five days): significantly inhibited the growth | viability at 0.16 µM (H1299 cells [2]; Homo sapiens, NCI-H1299, 120 h, Olaparib 0, AIU2001 0.16 μM, 5 days, panel A, read-out: Relative viability): 101% | viability at 0.32 µM (H1299 cells [2]; Homo sapiens, NCI-H1299, 120 h, Olaparib 0, AIU2001 0.32 μM, 5 days, panel A, read-out: Relative viability): 93.7% | viability at 0.63 µM (H1299 cells [2]; Homo sapiens, NCI-H1299, 120 h, Olaparib 0, AIU2001 0.63 μM, 5 days, panel A, read-out: Relative viability): 94.2% | viability at 1.25 µM (H1299 cells [2]; Homo sapiens, NCI-H1299, 120 h, Olaparib 0, AIU2001 1.25 μM, 5 days, panel A, read-out: Relative viability): 90% | viability at 2.5 µM (H1299 cells [2]; Homo sapiens, NCI-H1299, 120 h, Olaparib 0, AIU2001 2.50 μM, 5 days, panel A, read-out: Relative viability): 65.5% | viability at 5 µM (H1299 cells [2]; Homo sapiens, NCI-H1299, 120 h, Olaparib 0, AIU2001 5.00 μM, 5 days, panel A, read-out: Relative viability): 26.2% | viability at 10 µM (H1299 cells [2]; Homo sapiens, NCI-H1299, 120 h, Olaparib 0, AIU2001 10.00 μM, 5 days, panel A, read-out: Relative viability): 15.4% | Growth inhibition (H1299 cells [2]; MTT, five days): significantly inhibited the growth | Cleavage of caspase-3 and PARP-1 (A549 cells [3]): increased cleavage | Cleavage of caspase-3 and PARP-1 (H1299 cells [4]): increased cleavage | ROS levels (A549 cells [5]): distinctly increased ROS levels | ROS levels (H1299 cells [6]): distinctly increased ROS levels | inhibition at 10 µM (FLT3(D835Y)): ≥ 75%

Reference: paper PMC6801739, “Antitumor Activity of a Novel Tyrosine Kinase Inhibitor AIU2001 Due to Abrogation of the DNA Damage Repair in Non-Small Cell Lung Cancer Cells” (International Journal of Molecular Sciences, 2019)
